From US9695155B2, “Herbicidal substituted pyrimidinyloxy benzene compounds” (E. I. DU PONT DE NEMOURS AND COMPANY, priority 2013, dated 2017)

Assays:
oilseed rape = test: Test C postemergence; format: in vivo, Brassica napus; conditions: for Plant response rating (0 to 100), Oilseed Rape: 16 g ai/ha, 0 is no effect, 100 is complete control; for Oilseed Rape plant response rating: 31 g ai/ha, 13 to 15 days; for Oilseed Rape plant response rating / Plant response rating, Oilseed Rape: scale 0 to 100 (0 no effect, 100 complete control)
Outline: (§1)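 Sown in loam/sand → sprayed pre-emergence; or grown to 1–4 leaves in peat mix → sprayed post-emergence. Same solvent/surfactant formulation both ways. Greenhouse 13–15 d. Score 0–100 visual.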

ragweed = test: Test C postemergence; format: in vivo, Ambrosia elatior; conditions: for Plant response rating (0 to 100), Ragweed: 16 g ai/ha, 0 is no effect, 100 is complete control; for Ragweed plant response rating: 31 g ai/ha, 13 to 15 days; for Ragweed plant response rating / Plant response rating, Ragweed: scale 0 to 100 (0 no effect, 100 complete control)
Outline: as §1

morningglory [1] = test: Test C postemergence; format: in vivo, Ipomoea coccinea; conditions: for Plant response rating (0 to 100), Morningglory: 16 g ai/ha, 0 is no effect, 100 is complete control; for Morningglory plant response rating: 31 g ai/ha, 13 to 15 days; for Morningglory plant response rating / Plant response rating, Morningglory: scale 0 to 100 (0 no effect, 100 complete control)
Outline: as §1

large (Lg) crabgrass = test: Test A postemergence; format: in vivo, Digitaria sanguinalis; conditions: 0 to 100 scale where 0 is no effect and 100 is complete control; for Crabgrass, Large plant response rating: 125 g ai/ha; for Plant response rating, Crabgrass, Large: 500 g ai/ha
Outline: (§2)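 Scoring: eye-based comparison with untreated controls, 0 for no effect through 100 for complete control, at about day 10. Treatments: directed soil spray preemergence; foliar spray postemergence on 2–10 cm plants at the one- to two-leaf stage. Medium: loam soil with sand.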

yellow nutsedge = test: Test C preemergence; format: in vivo, Cyperus esculentus; conditions: for Nutsedge, Yellow plant response rating: preemergence
Outline: as §1

galium = test: Test C preemergence; format: in vivo, Galium aparine; conditions: for Galium plant response rating: preemergence; for Plant response rating, Galium: Preemergence, scale 0 to 100, 0 no effect, 100 complete control
Outline: as §1

velvetleaf = test: Test A postemergence; format: in vivo, Abutilon theophrasti; conditions: 0 to 100 scale where 0 is no effect and 100 is complete control; for Velvetleaf plant response rating: 125 g ai/ha; for Plant response rating, Velvetleaf: 500 g ai/ha
Outline: as §2

wheat, winter = test: Test C postemergence; format: in vivo, Triticum aestivum; conditions: for Plant response rating (0 to 100), Wheat: 16 g ai/ha, 0 is no effect, 100 is complete control; for Wheat plant response rating: 31 g ai/ha, 13 to 15 days; for Wheat plant response rating / Plant response rating, Wheat: scale 0 to 100 (0 no effect, 100 complete control)
Outline: as §1

soybean = test: Test C postemergence; format: in vivo, Glycine max; conditions: for Plant response rating (0 to 100), Soybean: 16 g ai/ha, 0 is no effect, 100 is complete control; for Soybean plant response rating: 31 g ai/ha, 13 to 15 days; for Soybean plant response rating / Plant response rating, Soybean: scale 0 to 100 (0 no effect, 100 complete control)
Outline: as §1

morningglory [2] = test: Test C preemergence; format: in vivo, Ipomoea coccinea; conditions: for Morningglory plant response rating: preemergence
Outline: as §1

corn = test: Test C preemergence; format: in vivo, Zea mays; conditions: for Corn plant response rating: preemergence; for Plant response rating, Corn: Preemergence, scale 0 to 100, 0 no effect, 100 complete control
Outline: as §1

lambsquarters = test: Test C postemergence; format: in vivo, Chenopodium album; conditions: for Plant response rating (0 to 100), Lambsquarters: 16 g ai/ha, 0 is no effect, 100 is complete control; for Lambsquarters plant response rating: 31 g ai/ha, 13 to 15 days; for Lambsquarters plant response rating / Plant response rating, Lambsquarters: scale 0 to 100 (0 no effect, 100 complete control)
Outline: as §1

barnyardgrass = test: Test B flooded paddy test; format: in vivo, Echinochloa crus-galli; conditions: Flood, 250 g ai/ha; 0 to 100 scale where 0 is no effect and 100 is complete control
Outline: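 Greenhouse flooded-pot test: compounds dosed into 3 cm standing water over 2-leaf plants, flood held constant. Rated visually after 13–15 days on 0–100 (complete control = 100); a dash marks no test result.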

[3] = 125 g ai/ha, postemergence, visual rating
[4] = 16 g ai/ha, scale 0 to 100 (0 no effect, 100 complete control)
[5] = 62 g ai/ha, scale 0 (no effect) to 100 (complete control)
[6] = 125 g ai/ha, scale 0 (no effect) to 100 (complete control)
[7] = Preemergence, 62 g ai/ha, scale 0 to 100, 0 no effect, 100 complete control

Fc1cnc(Oc2cccc(C(F)F)c2-n2cc(C(F)(F)F)cn2)nc1 [Compound 164]
Plant response rating (0 to 100), Oilseed Rape (oilseed rape; postemergence): 10 | Oilseed Rape plant response rating (oilseed rape; postemergence, visual rating): 10 | Plant response rating, Oilseed Rape (oilseed rape; [3]): 60 | Plant response rating, Oilseed Rape (oilseed rape; Postemergence, 62 g ai/ha): 55 | Plant response rating (0 to 100), Ragweed (ragweed; postemergence): 20 | Ragweed plant response rating (ragweed; postemergence, visual rating): 15 | Plant response rating, Ragweed (ragweed; [3]): 55 | Plant response rating, Ragweed (ragweed; Postemergence, 62 g ai/ha): 60 | Plant response rating (0 to 100), Morningglory (morningglory [1]; postemergence): 35 | Morningglory plant response rating (morningglory [1]; postemergence, visual rating): 35 | Plant response rating, Morningglory (morningglory [1]; [3]): 80 | Plant response rating, Morningglory (morningglory [1]; Postemergence, 62 g ai/ha): 55 | Crabgrass, Large plant response rating (large (Lg) crabgrass): 80 | Plant response rating, Crabgrass, Large (large (Lg) crabgrass): 100 | Nutsedge, Yellow plant response rating (yellow nutsedge; [4]): 0 | Nutsedge, Yellow plant response rating (yellow nutsedge; [5]): 20 | Nutsedge, Yellow plant response rating (yellow nutsedge; [6]): 25 | Galium plant response rating (galium; [4]): 75 | Galium plant response rating (galium; [5]): 95 | Galium plant response rating (galium; [6]): 95 | Plant response rating, Galium (galium; 31 g ai/ha): 100 | Velvetleaf plant response rating (velvetleaf): 100 | Plant response rating, Velvetleaf (velvetleaf): 100 | Plant response rating (0 to 100), Wheat (wheat, winter; postemergence): 0 | Wheat plant response rating (wheat, winter; postemergence, visual rating): 0 | Plant response rating, Wheat (wheat, winter; [3]): 0 | Plant response rating, Wheat (wheat, winter; Postemergence, 62 g ai/ha): 0 | Plant response rating (0 to 100), Soybean (soybean; postemergence): 40 | Soybean plant response rating (soybean; postemergence, visual rating): 35 | Plant response rating, Soybean (soybean; [3]): 65 | Plant response rating, Soybean (soybean; Postemergence, 62 g ai/ha): 75 | Morningglory plant response rating (morningglory [2]; [4]): 10 | Morningglory plant response rating (morningglory [2]; [5]): 85 | Morningglory plant response rating (morningglory [2]; [6]): 100 | Corn plant response rating (corn; [4]): 0 | Corn plant response rating (corn; [5]): 5 | Corn plant response rating (corn; [6]): 45 | Plant response rating, Corn (corn; 31 g ai/ha): 5 | Plant response rating (0 to 100), Lambsquarters (lambsquarters; postemergence): 15 | Lambsquarters plant response rating (lambsquarters; postemergence, visual rating): 25 | Plant response rating, Lambsquarters (lambsquarters; [3]): 65 | Plant response rating, Lambsquarters (lambsquarters; Postemergence, 62 g ai/ha): 40 | Plant response rating, Barnyardgrass (barnyardgrass): 20

Cc1cnc(Oc2cccc(C#N)c2-n2cc(C(F)(F)F)cn2)nc1 [Compound 180]
Plant response rating (0 to 100), Oilseed Rape (oilseed rape; postemergence): 15 | Oilseed Rape plant response rating (oilseed rape; postemergence, visual rating): 25 | Plant response rating, Oilseed Rape (oilseed rape; [3]): 55 | Plant response rating, Oilseed Rape (oilseed rape; Postemergence, 62 g ai/ha): 40 | Plant response rating (0 to 100), Ragweed (ragweed; postemergence): 35 | Ragweed plant response rating (ragweed; postemergence, visual rating): 65 | Plant response rating, Ragweed (ragweed; [3]): 70 | Plant response rating, Ragweed (ragweed; Postemergence, 62 g ai/ha): 80 | Plant response rating (0 to 100), Morningglory (morningglory [1]; postemergence): 45 | Morningglory plant response rating (morningglory [1]; postemergence, visual rating): 65 | Plant response rating, Morningglory (morningglory [1]; [3]): 90 | Plant response rating, Morningglory (morningglory [1]; Postemergence, 62 g ai/ha): 75 | Crabgrass, Large plant response rating (large (Lg) crabgrass): 90 | Plant response rating, Crabgrass, Large (large (Lg) crabgrass): 90 | Nutsedge, Yellow plant response rating (yellow nutsedge; [4]): 5 | Nutsedge, Yellow plant response rating (yellow nutsedge; [6]): 85 | Plant response rating, Nutsedge, Yellow (yellow nutsedge; [7]): 65 | Galium plant response rating (galium; [4]): 80 | Galium plant response rating (galium; [6]): 100 | Plant response rating, Galium (galium; 62 g ai/ha): 100 | Velvetleaf plant response rating (velvetleaf): 100 | Plant response rating, Velvetleaf (velvetleaf): 100 | Plant response rating (0 to 100), Wheat (wheat, winter; postemergence): 0 | Wheat plant response rating (wheat, winter; postemergence, visual rating): 0 | Plant response rating, Wheat (wheat, winter; [3]): 5 | Plant response rating, Wheat (wheat, winter; Postemergence, 62 g ai/ha): 0 | Plant response rating (0 to 100), Soybean (soybean; postemergence): 85 | Soybean plant response rating (soybean; postemergence, visual rating): 85 | Plant response rating, Soybean (soybean; [3]): 95 | Plant response rating, Soybean (soybean; Postemergence, 62 g ai/ha): 98 | Morningglory plant response rating (morningglory [2]; [4]): 35 | Morningglory plant response rating (morningglory [2]; [6]): 100 | Plant response rating, Morningglory (morningglory [2]; [7]): 100 | Corn plant response rating (corn; [4]): 5 | Corn plant response rating (corn; [6]): 65 | Plant response rating, Corn (corn; 62 g ai/ha): 30 | Plant response rating (0 to 100), Lambsquarters (lambsquarters; postemergence): 35 | Lambsquarters plant response rating (lambsquarters; postemergence, visual rating): 55 | Plant response rating, Lambsquarters (lambsquarters; [3]): 85 | Plant response rating, Lambsquarters (lambsquarters; Postemergence, 62 g ai/ha): 75 | Plant response rating, Barnyardgrass (barnyardgrass): 60
